One compound from BindingDB's records for patent US9102669 (Janssen Pharmaceutica, 2015) can be followed below.

For this assay, the target named is T1, Acyl-CoA desaturase 1 (Rattus norvegicus, UniProt P07308).
T1 sequence (P07308 whole entry): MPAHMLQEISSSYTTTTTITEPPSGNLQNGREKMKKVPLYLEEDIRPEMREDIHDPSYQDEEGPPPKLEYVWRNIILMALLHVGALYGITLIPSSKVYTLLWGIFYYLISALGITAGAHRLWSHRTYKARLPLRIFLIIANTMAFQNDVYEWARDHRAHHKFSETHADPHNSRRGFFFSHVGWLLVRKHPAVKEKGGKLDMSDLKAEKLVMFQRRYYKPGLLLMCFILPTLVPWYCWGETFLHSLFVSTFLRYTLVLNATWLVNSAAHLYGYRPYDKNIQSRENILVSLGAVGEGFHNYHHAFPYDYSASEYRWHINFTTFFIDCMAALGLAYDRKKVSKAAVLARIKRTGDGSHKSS
The assay can be described thus: Enzymatic Assay. The conditions noted are these: 25 °C. The procedure: The SCD1 enzymatic assay was done in a volume of 50 μL using 10 μg of RLM (prepared as described above) in a 96-well polypropylene plate (enzyme reaction buffer contains 0.1 M K-Phosphate Buffer, 10 mM ATP, 6 mM MgCl2. 1 mM CoA, 1 mM β-NADH, 1.6 mM L-glutathione, 20 μM Stearoyl-CoA). […] Test compound was then added to the reaction mixture at the selected concentration. After incubation at room temperature for 2 hours, 5 μL 1 N HCl was added to stop the reaction, followed by addition of 25 μL of 10% charcoal. The reaction mixture was then transferred to 96-well Multiscreen plate (Millipore, Cat#MSFCN6B50).

Usually IC50 stands for the point on the concentration scale where inhibition reaches its midpoint.

The structures appear in SMILES notation.

The compound `Cn1cc(-c2ccc(N3CCC(N4CCc5c(Cl)cc(Cl)cc54)CC3)nn2)cn1` [US9102669, 68] registered a half-maximal inhibitory concentration (IC50) above 1000 nM.
